Test system: S. Epidermidis
Assay: Growth inhibition assay in 96-well plate, optical density of S. Epidermidis
Format: cell-based, Staphylococcus epidermidis
Protocol: The efficacy of 2-butyl octanol for selectively promoting, inhibiting, reducing, and/or treating bacterial growth was evaluated. Particularly, the efficacy of 2-butyl octanol for selectively promoting, inhibiting, reducing, and/or treating bacterial growth of Corynebacterium and Staphylococcus was evaluated. To evaluate the efficacy, an active solution was prepared by emulsifying 2-butyl octanol with a nonionic surfactant, namely, Polysorbate 80. The active solution included the 2-butyl octanol and the Polysorbate 80 in a ratio of about 83:17. Both positive controls (including no active solution) and negative controls (including no bacteria) were also prepared.
A 96-well plate was utilized to evaluate the growth of the respective bacteria at varying dilutions. Each of the wells of a 96-well plate was aseptically filled with about 100 μL of Tryptic Soy Broth (TSB). In the first well of each row, about 100 μL of either the active solution (including the 2-butyl octanol and Polysorbate 80) or the desired solvent for the respective positive and negative controls was added to thereby provide a total of about 200 μL in the first well of the each respective row. A multi-channel pipette was then utilized to prepare a two-fold dilution in each column. Specifically, a multi-channel pipette set to about 100 μL was utilized to mix and transfer about 100 μL of the 200 μL from the wells of the first column to the respective wells of a subsequent column. This was repeated for each of the remaining eleven columns. About 100 μL of the twelfth column was removed, thereby leaving about 100 μL in each of the 96 wells. […] Specifically, a phosphate buffered saline (PBS) was utilized for the negative control. About 100 μL of the respective bacteria adjusted to 0.1 optical density (OD) bacteria was added to all other wells. The well plate was then incubated overnight at about 37° C. in a growth inhibition assay machine. Measurements were taken at about one hour increments.

For `CCCCCCC(CO)CCCC` (stereo not shown) [2-butyl octanol, 2-butyl-1-octanol], the “Measured Optical Density of S. Epidermidis” value (from here on “Measured Optical Density”) (0.02% 2-Butyl Octanol, 1 Hour) was 0.07, the “Measured Optical Density” value (0.02% 2-Butyl Octanol, 2 Hour) was 0.327 and the “Measured Optical Density” value (0.02% 2-Butyl Octanol, 3 Hour) was 0.519. The “Measured Optical Density” value (0.02% 2-Butyl Octanol, 4 Hour) was 0.561, the “Measured Optical Density” value (0.02% 2-Butyl Octanol, 5 Hour) was 0.548 and the “Measured Optical Density” value (0.02% 2-Butyl Octanol, 6 Hour) was 0.564. For the same compound, the “Measured Optical Density” value (0.02% 2-Butyl Octanol, 7 Hour) was 0.586, the “Measured Optical Density” value (0.02% 2-Butyl Octanol, 8 Hour) was 0.593 and the “Measured Optical Density” value (0.02% 2-Butyl Octanol, 9 Hour) was 0.602. The “Measured Optical Density” value (0.02% 2-Butyl Octanol, 10 Hour) was 0.623, the “Measured Optical Density” value (0.02% 2-Butyl Octanol, 11 Hour) was 0.652 and the “Measured Optical Density” value (0.02% 2-Butyl Octanol, 12 Hour) was 0.651. For the same compound, the “Measured Optical Density” value (0.02% 2-Butyl Octanol, 13 Hour) was 0.66, the “Measured Optical Density” value (0.02% 2-Butyl Octanol, 14 Hour) was 0.689 and the “Measured Optical Density” value (0.02% 2-Butyl Octanol, 15 Hour) was 0.809. The “Measured Optical Density” value (0.02% 2-Butyl Octanol, 16 Hour) was 0.893, the “Measured Optical Density” value (0.02% 2-Butyl Octanol, 17 Hour) was 0.951 and the “Measured Optical Density” value (0.02% 2-Butyl Octanol, 18 Hour) was 0.97. The “Measured Optical Density” value (0.04% 2-Butyl Octanol, 1 Hour) was 0.088, the “Measured Optical Density” value (0.04% 2-Butyl Octanol, 2 Hour) was 0.351 and the “Measured Optical Density” value (0.04% 2-Butyl Octanol, 3 Hour) was 0.55. The “Measured Optical Density” value (0.04% 2-Butyl Octanol, 4 Hour) was 0.583, the “Measured Optical Density” value (0.04% 2-Butyl Octanol, 5 Hour) was 0.578 and the “Measured Optical Density” value (0.04% 2-Butyl Octanol, 6 Hour) was 0.592. For the same compound, the “Measured Optical Density” value (0.04% 2-Butyl Octanol, 7 Hour) was 0.613, the “Measured Optical Density” value (0.04% 2-Butyl Octanol, 8 Hour) was 0.64 and the “Measured Optical Density” value (0.04% 2-Butyl Octanol, 9 Hour) was 0.651. For the same compound, the “Measured Optical Density” value (0.04% 2-Butyl Octanol, 10 Hour) was 0.664, the “Measured Optical Density” value (0.04% 2-Butyl Octanol, 11 Hour) was 0.666 and the “Measured Optical Density” value (0.04% 2-Butyl Octanol, 12 Hour) was 0.656. The “Measured Optical Density” value (0.04% 2-Butyl Octanol, 13 Hour) was 0.652, the “Measured Optical Density” value (0.04% 2-Butyl Octanol, 14 Hour) was 0.675 and the “Measured Optical Density” value (0.04% 2-Butyl Octanol, 15 Hour) was 0.756. The “Measured Optical Density” value (0.04% 2-Butyl Octanol, 16 Hour) was 0.825, the “Measured Optical Density” value (0.04% 2-Butyl Octanol, 17 Hour) was 0.915 and the “Measured Optical Density” value (0.04% 2-Butyl Octanol, 18 Hour) was 0.961. The “Measured Optical Density” value (0.08% 2-Butyl Octanol, 1 Hour) was 0.111, the “Measured Optical Density” value (0.08% 2-Butyl Octanol, 2 Hour) was 0.482 and the “Measured Optical Density” value (0.08% 2-Butyl Octanol, 3 Hour) was 0.688. The “Measured Optical Density” value (0.08% 2-Butyl Octanol, 4 Hour) was 0.703, the “Measured Optical Density” value (0.08% 2-Butyl Octanol, 5 Hour) was 0.684 and the “Measured Optical Density” value (0.08% 2-Butyl Octanol, 6 Hour) was 0.677. The “Measured Optical Density” value (0.08% 2-Butyl Octanol, 7 Hour) was 0.662, the “Measured Optical Density” value (0.08% 2-Butyl Octanol, 8 Hour) was 0.652 and the “Measured Optical Density” value (0.08% 2-Butyl Octanol, 9 Hour) was 0.653. The “Measured Optical Density” value (0.08% 2-Butyl Octanol, 10 Hour) was 0.658, the “Measured Optical Density” value (0.08% 2-Butyl Octanol, 11 Hour) was 0.646 and the “Measured Optical Density” value (0.08% 2-Butyl Octanol, 12 Hour) was 0.63. For the same compound, the “Measured Optical Density” value (0.08% 2-Butyl Octanol, 13 Hour) was 0.632, the “Measured Optical Density” value (0.08% 2-Butyl Octanol, 14 Hour) was 0.662 and the “Measured Optical Density” value (0.08% 2-Butyl Octanol, 15 Hour) was 0.741. For the same compound, the “Measured Optical Density” value (0.08% 2-Butyl Octanol, 16 Hour) was 0.795, the “Measured Optical Density” value (0.08% 2-Butyl Octanol, 17 Hour) was 0.883 and the “Measured Optical Density” value (0.08% 2-Butyl Octanol, 18 Hour) was 0.943. The “Measured Optical Density” value (0.16% 2-Butyl Octanol, 1 Hour) was 0.148, the “Measured Optical Density” value (0.16% 2-Butyl Octanol, 2 Hour) was 0.564 and the “Measured Optical Density” value (0.16% 2-Butyl Octanol, 3 Hour) was 0.76. For the same compound, the “Measured Optical Density” value (0.16% 2-Butyl Octanol, 4 Hour) was 0.786, the “Measured Optical Density” value (0.16% 2-Butyl Octanol, 5 Hour) was 0.778 and the “Measured Optical Density” value (0.16% 2-Butyl Octanol, 6 Hour) was 0.764. For the same compound, the “Measured Optical Density” value (0.16% 2-Butyl Octanol, 7 Hour) was 0.757, the “Measured Optical Density” value (0.16% 2-Butyl Octanol, 8 Hour) was 0.741 and the “Measured Optical Density” value (0.16% 2-Butyl Octanol, 9 Hour) was 0.729. The “Measured Optical Density” value (0.16% 2-Butyl Octanol, 10 Hour) was 0.726, the “Measured Optical Density” value (0.16% 2-Butyl Octanol, 11 Hour) was 0.718 and the “Measured Optical Density” value (0.16% 2-Butyl Octanol, 12 Hour) was 0.702. For the same compound, the “Measured Optical Density” value (0.16% 2-Butyl Octanol, 13 Hour) was 0.695, the “Measured Optical Density” value (0.16% 2-Butyl Octanol, 14 Hour) was 0.702 and the “Measured Optical Density” value (0.16% 2-Butyl Octanol, 15 Hour) was 0.764. The “Measured Optical Density” value (0.16% 2-Butyl Octanol, 16 Hour) was 0.801, the “Measured Optical Density” value (0.16% 2-Butyl Octanol, 17 Hour) was 0.844 and the “Measured Optical Density” value (0.16% 2-Butyl Octanol, 18 Hour) was 0.874. The “growth of S. epidermidis” value (2-butyl octanol about 0.02 weight % to about 5.2 weight %) was “did not inhibit the growth of and/or promoted the growth of”, the “Measured Optical Density” value (5.2% 2-Butyl Octanol, 1 Hour) was 0.257 and the “Measured Optical Density” value (5.2% 2-Butyl Octanol, 2 Hour) was 0.501. The “Measured Optical Density” value (5.2% 2-Butyl Octanol, 3 Hour) was 0.583, the “Measured Optical Density” value (5.2% 2-Butyl Octanol, 4 Hour) was 0.624 and the “Measured Optical Density” value (5.2% 2-Butyl Octanol, 5 Hour) was 0.665. The “Measured Optical Density” value (5.2% 2-Butyl Octanol, 6 Hour) was 0.723, the “Measured Optical Density” value (5.2% 2-Butyl Octanol, 7 Hour) was 0.855 and the “Measured Optical Density” value (5.2% 2-Butyl Octanol, 8 Hour) was 0.918. For the same compound, the “Measured Optical Density” value (5.2% 2-Butyl Octanol, 9 Hour) was 0.994, the “Measured Optical Density” value (5.2% 2-Butyl Octanol, 10 Hour) was 1.052 and the “Measured Optical Density” value (5.2% 2-Butyl Octanol, 11 Hour) was 1.067. For the same compound, the “Measured Optical Density” value (5.2% 2-Butyl Octanol, 12 Hour) was 1.066, the “Measured Optical Density” value (5.2% 2-Butyl Octanol, 13 Hour) was 1.081 and the “Measured Optical Density” value (5.2% 2-Butyl Octanol, 14 Hour) was 1.105. For the same compound, the “Measured Optical Density” value (5.2% 2-Butyl Octanol, 15 Hour) was 1.118, the “Measured Optical Density” value (5.2% 2-Butyl Octanol, 16 Hour) was 1.127 and the “Measured Optical Density” value (5.2% 2-Butyl Octanol, 17 Hour) was 1.142. The “Measured Optical Density” value (5.2% 2-Butyl Octanol, 18 Hour) was 1.127.

Reference: patent US12194124B2, “Personal care compositions for treating odor causing bacteria and methods for the same” (Colgate-Palmolive Company, priority 2019, dated 2025)
